From ChEMBL document CHEMBL1143783, “In vitro biotransformations of the prostaglandin D2 (DP) antagonist MK-0524 and synthesis of metabolites” (Bioorg Med Chem Lett, 2007)

Test system: Plasma
Experiment: Stability in rat plasma
Format: ADME, cell-free

Row | Structure (SMILES) | Stability [%]
1 | CS(=O)(=O)c1cc(F)cc2c3c(n(Cc4ccc(Cl)cc4)c12)[C@@H](CC(=O)O)C[C@@H]3O | < 5
2 | CS(=O)(=O)c1cc(F)cc2c3c(n(Cc4ccc(Cl)cc4)c12)[C@@H](CC(=O)O)C[C@H]3O | < 5
